According to US7005416B2, “Dalfopristine/quinupristine combinations with cefpirome” (Jones Pharma Incorporated, priority 2000, dated 2006):
Values after ≈ are worked out from the molar mass of the structure shown.

What was measured:
MRSA P8 = assay: Rat experimental aortic endocarditis, MRSA P8; type: in vivo, Wistar female rats; details: MRSA P8, 5 days treatment, FIG. 2; monotherapy P>0.05, combination P<0.05
Source text: (§1) For the experimental endocarditis study, Wistar female rats weighing 200 g with aortic vegetation (produced according to the method described by Heraief et al., Infect Immunol., 37,127–31 (1982), the disclosure of which is incorporated by reference herein) were infected with an inoculum of 10^5 CFU/ml of the organism to be tested, which corresponds to 10 times the minimum inoculum to produce endocarditis in at least 90% of the untreated controls (where CFU refers to colony forming units).
(§2) The treatment was started 12 hours after the bacterial infection, and was continued for 5 days. […]
(§3) The control rats were sacrificed at the start of the treatment and the treated rats were sacrificed 24 hours after the final antibiotic administration. The bacterial density in the vegetations was determined after dissecting the vegetations under sterile conditions, weighing, homogenizing in 1 ml of saline solution, and then diluting the solution (series of dilutions) before placing it onto plates for counting of the colonies. The number of colonies growing on the plates was determined after 48 hours of incubation at 35° C. The bacterial densities in the vegetations were expressed as log10 CFU/g of tissue. […]

MRSA strain AW7 = assay: Growth of bacterial populations on cefpirome-containing plates, with or without subinhibitory dalfopristine/quinupristine, strain AW7; type: cell-based, Staphylococcus aureus
Method: (§4) The study in vitro and the determination of the MICs (minimum inhibitory concentrations) was carried out using cultures on agar plates (Antimicrob. Agents Chemother., 39, 1419–1424 (1995), the disclosure of which is incorporated by reference herein).
(§5) Bacterial populations of the MRSA strains Ab 7 and P8 can grow on plates containing up to 60 mg/l of cefpirome.

MRSA strain P8 = assay: Growth of bacterial populations on cefpirome-containing plates, with or without subinhibitory dalfopristine/quinupristine, strain P8; type: cell-based, Staphylococcus aureus
Method: as §4, §5

[1] = tested on: MRSA strain AW7 (C-MLSB-resistant); assay: MIC determination on agar plates, MRSA strain AW7; type: cell-based; details: Staphylococcus aureus, read-out: minimum inhibitory concentration (MIC)
Method: (§6) The microorganisms tested were two clinical isolates of C-MLSB-resistant MRSA: strains AW7 and P8, previously characterized in vitro, and in vivo in rat experimental endocarditis.
as §4

in vivo = assay: in vivo; design: species or system rats; details: Wistar, rat, iv
Method: The treatment was started 12 hours after the bacterial infection, and was continued for 5 days. The antibiotics were administered by means of a permanent venous catheter with a programmable pump (Pump 44; Harvard Apparatus Inc.) according to the method described in Antimicrobial Agents Chemother., 39, 1419–1424 (1995), the disclosure of which is incorporated by reference herein. The treatments simulated kinetics in humans, which were produced by intravenous administration of 7 mg/kg of quinupristine/dalfopristine every 12 hours, or by intravenous administration of 2 g of cefpirome every 12 hours.
Prior to the treatment experiments, the setting up of the simulation of the human kinetics of the quinupristine/dalfopristine combination with cefpirome in rats was performed on animals that were catheterized, but not infected. In these preliminary experiments, each point of the pharmacokinetics curve is the mean (±standard deviation) of the concentrations measured in 6 different rats. The concentrations of product in the serum were measured in a bioassay (using Micrococcus luteus for quinupristine/dalfopristine, and Bacillus subtilis ATCC 6633 for cefpirome).
These values are in accordance with the therapeutic levels observed in humans for these active principles. […]

MRSA AW7 = assay: Rat experimental aortic endocarditis, MRSA AW7; type: in vivo, Wistar female rats
Source text: as §1, §2, §3

[2] = tested on: C-MLSB-resistant MRSA strains; assay: Rat experimental endocarditis resulting from C-MLSB-resistant MRSA strains (overall statement); type: in vivo, rats; details: monotherapy
Method: Synercid® (quinupristine/dalfopristine) and cefpirome were tested separately in rats, on experimental endocarditis resulting from C-MLSB-resistant MRSA strains.
as §1, §2, §3

[3] = tested on: MRSA strain P8 (C-MLSB-resistant); assay: MIC determination on agar plates, MRSA strain P8; type: cell-based; details: Staphylococcus aureus, read-out: minimum inhibitory concentration (MIC)
Method: as §6, §4

- MIC [1]: 4 µg/mL (≈ 7.77 µM)
- concentration at 5 min (in vivo): 161 ± 19.7 µg/mL
- concentration at 12 h (in vivo): 2.2 ± 1.4 µg/mL
- MIC [3]: 2 µg/mL (≈ 3.89 µM)
Compound: CO/N=C(\C(=O)N[C@@H]1C(=O)N2C(C(=O)[O-])=C(C[n+]3cccc4c3CCC4)CS[C@H]12)c1csc(N)n1 [cefpirome]
- effectiveness on aortic endocarditis (statistical significance) (MRSA P8): neither quinupristine/dalfopristine, nor cefpirome, in monotherapy were significantly effective
- cefpirome concentration in plates up to which bacterial populations can grow (MRSA strain AW7; MRSA strain AW7 (printed Ab 7), cefpirome alone): up to 60 mg/l
- cefpirome concentration in plates at which the strain did not grow (MRSA strain AW7; MRSA strain AW7, plates with subinhibitory (¼ MIC) dalfopristine/quinupristine combination added): ≥ 5 mg/L
- cefpirome concentration in plates up to which bacterial populations can grow (MRSA strain P8; MRSA strain P8, cefpirome alone): up to 60 mg/l
- cefpirome concentration in plates at which the strain did not grow (MRSA strain P8; MRSA strain P8, plates with subinhibitory (¼ MIC) dalfopristine/quinupristine combination added): ≥ 15 mg/L
- effectiveness on aortic endocarditis (statistical significance) (MRSA AW7; MRSA AW7, 5 days treatment, FIG. 2, monotherapy P>0.05, combination P<0.05): neither quinupristine/dalfopristine, nor cefpirome, in monotherapy were significantly effective
- log10 CFU/g of vegetation (MRSA AW7; MRSA AW7, in 38% of the cases): >8.7 in 38% log10 CFU/g
- effectiveness in vivo [2]: Neither Synercid® nor cefpirome showed any effectiveness in vivo in monotherapy
